One compound from patent US4552893A, “Leukotriene antagonists” (SmithKline Beckman Corporation, priority 1983, dated 1985) can be followed below.

In this assay the target is T1, leukotriene induced contraction of guinea pig tracheal tissues (LTD4) (Cavia porcellus, UniProt Q2NNR5).
T1 construct: Guinea pig (adult male albino Hartley strain) tracheal spiral strips; from tissue; host or cells: guinea pig (adult male albino Hartley strain) tracheal spiral strips
T1 sequence (Q2NNR5 1-340): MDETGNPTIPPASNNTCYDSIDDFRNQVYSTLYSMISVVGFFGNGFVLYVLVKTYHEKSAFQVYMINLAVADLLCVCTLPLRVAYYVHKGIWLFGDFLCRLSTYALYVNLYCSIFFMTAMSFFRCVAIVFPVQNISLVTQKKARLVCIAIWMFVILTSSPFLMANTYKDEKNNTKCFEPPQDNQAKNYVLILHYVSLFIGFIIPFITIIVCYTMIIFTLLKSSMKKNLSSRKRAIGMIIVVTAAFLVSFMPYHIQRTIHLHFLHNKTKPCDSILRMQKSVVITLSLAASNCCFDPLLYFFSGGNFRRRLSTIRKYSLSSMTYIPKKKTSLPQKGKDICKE
Description: Inhibition of LTD4-induced contraction of guinea pig tracheal spiral strips in vitro (leukotriene antagonist activity). In kind it is cell-based. Conditions: LTD4 cumulative concentration-response, 30 min pretreatment with test compound, meclofenamic acid 1 μM, pA2 = -log KB from EC30 (30% of carbachol contraction). As to the method:
The leukotriene antagonist activity of the compounds of this invention is measured by the ability of the compound to inhibit leukotriene induced contraction of guinea pig tracheal tissues in vitro. The following methodology was employed:
In vitro: Guinea pig (adult male albino Hartley strain) tracheal spiral strips of approximate dimensions 2 to 3 mm cross-sectional width and 3.5 cm length were bathed in modified Krebs buffer in jacketed 10 ml tissue bath and continously aerated with 95% O2 /5% CO2. The tissues were connected via silk suture to force displacement transducers for recording isometric tension. The tissues were equilibrated for 1 hr., pretreated for 15 minutes with meclofenamic acid (1 μM) to remove intrinsic prostaglandin responses, and then pretreated for an additional 30 minutes with either the test compound or vehicle control. A cumulative concentration-response curve for LTD4 on triplicate tissues was generated by successive increases in the bath concentration of the LTD4. […]
Calculations: The averages of the triplicate LTD4 concentration-response curves both in the presence and absence of the test compound were plotted on log graph paper. The concentration of LTD4 needed to elicit 30% of the contraction elicited by carbachol was measured and defined as the EC30. The pA2 value for the test compound was determined by the following equations: [formula] […]

On to `CCCCCCCCCCCC/C=C\C(SCCC(=O)O)C(O)CO` (stereo not shown) [3-[(2-Carboxyethyl)thio]-4(Z)-heptadecen-1,2-diol], for which the Kb (usually the affinity of an antagonist, worked out from how it opposes an agonist) was 6.31 µM.
